Measurements: US20230407243A1, “GENETIC PLATFORM TO INVESTIGATE THE FUNCTIONS OF BACTERIAL DRUG EFFLUX PUMPS” (priority 2022, published 2023)
Like-named read-outs stand apart in the source and are kept apart here.

What was measured:
Type in all cases: cell-based, Escherichia coli
[1] = system: E. coli EKO-35; experiment: microbe, parasite or virus in culture; details: for Fold change of MICs: EKO-35 compared to EKO-35 (reference); for MIC: Escherichia coli
Summary of the method: (§1)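 OD600 read-out, background-corrected, after 18 h at 37 °C with shaking. Compounds were tested in duplicate as 2-fold series in MHB II, with DMSO as solvent control. Inoculum was a 1/2000 dilution of an OD600 ~1.0 PBS suspension.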

[2] = system: E. coli ΔtolC; experiment: microbe, parasite or virus in culture; details: for MIC: Escherichia coli, 18 h, read-out: Minimum Inhibitory Concentration, ΔtolC; for Minimum inhibitory concentration (MIC), ΔtolC: Table 10, without pore, technical duplicate
Summary of the method: as §1

[3] = system: wild-type E. coli K-12 str. BW25113; experiment: microbe, parasite or virus in culture; details: Escherichia coli
Summary of the method: as §1

[4] = system: EKO-35 araC::acrEF; experiment: MIC susceptibility profiling, efflux platform; details: for Fold change of MICs: EKO-35 araC::acrEF compared to EKO-35; for MIC: Escherichia coli, Table 13A, non-porinated, technical duplicate, read-out: Minimum Inhibitory Concentration, EKO-35 araC::acrEF
Summary of the method: as §1

[5] = system: EKO-35 araC::emrAB; experiment: MIC susceptibility profiling, efflux platform; details: for Fold change of MICs: EKO-35 araC::emrAB compared to EKO-35; for MIC: Escherichia coli, Table 13B, non-porinated, technical duplicate, read-out: Minimum Inhibitory Concentration, EKO-35 araC::emrAB
Summary of the method: as §1

[6] = system: EKO-35 araC::macAB; experiment: MIC susceptibility profiling, efflux platform; details: for Fold change of MICs: EKO-35 araC::macAB compared to EKO-35; for MIC: Escherichia coli, Table 13B, non-porinated, technical duplicate, read-out: Minimum Inhibitory Concentration, EKO-35 araC::macAB
Summary of the method: as §1

[7] = system: wild-type (WT) K-12-Pore; experiment: microbe, parasite or virus in culture; details: Escherichia coli
Summary of the method: (§2)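 MIC values come from background-corrected OD600 readings (pre-incubation OD subtracted) after 18 h at 37 °C and 900 rpm in MHB II. Compounds were tested in duplicate as 2-fold dilutions. The inoculum came from 18 h LB cultures adjusted to OD600 ~1.0 and diluted 1/2000, and the pore-bearing strains were vancomycin-checked beforehand.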

[8] = system: ΔtolC-Pore; experiment: microbe, parasite or virus in culture; details: for MIC: Escherichia coli, 18 h, read-out: Minimum inhibitory concentration, ΔtolC-Pore; for Minimum inhibitory concentration (MIC), Pore ΔtolC: Table 10, with pore, technical duplicate
Summary of the method: as §2

[9] = system: EKO-35-Pore; experiment: MIC susceptibility profiling, porinated strain; details: for Fold changes of MICs: EKO-35-Pore compared to EKO-35-Pore (reference); for MIC: Escherichia coli, technical duplicate
Summary of the method: as §2

[10] = system: EKO-35 araC::acrB Pore; experiment: MIC susceptibility profiling, porinated efflux platform; details: for Fold changes of MICs: EKO-35 araC::acr-B Pore compared to EKO-35-Pore; for MIC: Escherichia coli, Table 14A, porinated, technical duplicate, read-out: Minimum inhibitory concentration, EKO-35 araC::acrB Pore
Summary of the method: as §2

[11] = system: EKO-35 araC::acrBD408A Pore; experiment: as above; details: for Fold changes of MICs: EKO-35 araC::acrBD408A Pore compared to EKO-35-Pore; for MIC: Escherichia coli, EKO-35 araC::acrBD408A Pore, technical duplicate, read-out: Minimum inhibitory concentration
Summary of the method: as §2

[12] = system: EKO-35 araC::acrD Pore; experiment: as above; details: for Fold changes of MICs: EKO-35 araC::acrD Pore compared to EKO-35-Pore; for MIC: Escherichia coli, Table 14A, porinated, technical duplicate, read-out: Minimum inhibitory concentration, EKO-35 araC::acrD Pore
Summary of the method: as §2

[13] = system: EKO-35 araC::acrEF Pore; experiment: as above; details: for Fold changes of MICs: EKO-35 araC::acrEF Pore compared to EKO-35-Pore
Summary of the method: as §2

[14] = system: EKO-35 araC::emrAB Pore; experiment: as above; details: for Fold changes of MICs: EKO-35 araC::emrAB Pore compared to EKO-35-Pore; for MIC: Escherichia coli, EKO-35 araC::emrAB Pore, technical duplicate, read-out: Minimum inhibitory concentration
Summary of the method: as §2

[15] = system: EKO-35 araC::emrKY Pore; experiment: as above; details: for Fold changes of MICs: EKO-35 araC::emrKY Pore compared to EKO-35-Pore; for MIC: Escherichia coli, EKO-35 araC::emrKY Pore, technical duplicate, read-out: Minimum inhibitory concentration
Summary of the method: as §2

[16] = system: EKO-35 araC::macAB Pore; experiment: as above; details: for Fold changes of MICs: EKO-35 araC::macAB Pore compared to EKO-35-Pore; for MIC: Escherichia coli, EKO-35 araC::macAB Pore, technical duplicate, read-out: Minimum inhibitory concentration
Summary of the method: as §2

[17] = system: EKO-35 araC::mdtBC Pore; experiment: as above; details: for Fold changes of MICs: EKO-35 araC::mdtBC Pore compared to EKO-35-Pore; for MIC: Escherichia coli, EKO-35 araC::mdtBC Pore, technical duplicate, read-out: Minimum inhibitory concentration
Summary of the method: as §2

[18] = system: EKO-35 araC::mdtEF Pore; experiment: as above; details: for Fold changes of MICs: EKO-35 araC::mdtEF Pore compared to EKO-35-Pore
Summary of the method: as §2

[19] = system: EKO-35 araC::mexCD Pore; experiment: as above; details: for Fold changes of MICs: EKO-35 araC::mexCD Pore compared to EKO-35-Pore; for MIC: Escherichia coli, EKO-35 araC::mexCD Pore, technical duplicate, read-out: Minimum inhibitory concentration
Summary of the method: as §2

[20] = EKO35, Table 10, without pore, technical duplicate, read-out: Minimum inhibitory concentration (MIC), EKO-35
[21] = EKO35, Table 13A, non-porinated, technical duplicate, read-out: Minimum Inhibitory Concentration, EKO-35
[22] = BW25113, Table 10, without pore, technical duplicate, read-out: Minimum inhibitory concentration (MIC), K-12
[23] = BW25113, Table 13A, non-porinated, technical duplicate, read-out: Minimum Inhibitory Concentration, K-12
[24] = Table 10, with pore, technical duplicate, read-out: Minimum inhibitory concentration (MIC), Pore K-12
[25] = Table 14A, porinated, technical duplicate, read-out: Minimum inhibitory concentration, K-12 (WT)-Pore
[26] = Table 10, with pore, read-out: Minimum inhibitory concentration (MIC), Pore EKO-35
[27] = Table 14A, porinated, read-out: Minimum inhibitory concentration, EKO-35-Pore

Structure (SMILES) | Fold change of MICs [1] | MIC [1, 20] | MIC [1, 21] | MIC [2] | Minimum inhibitory concentration (MIC), ΔtolC [2] | Fold change of MICs [4] | Fold change of MICs [5] | Fold change of MICs [6] | MIC [8] | Minimum inhibitory concentration (MIC), Pore ΔtolC [8] | Fold changes of MICs [9] | Fold changes of MICs [10] | Fold changes of MICs [12] | Fold changes of MICs [13] | Fold changes of MICs [14] | Fold changes of MICs [15] | Fold changes of MICs [16] | Fold changes of MICs [17] | Fold changes of MICs [18] | Fold changes of MICs [19] | further results
[H]/N=C(\N/C(=N/[H])NCCCCCCNC(=N)NC(=N)Nc1ccc(Cl)cc1)Nc1ccc(Cl)cc1 [Chlorhexidine] | 1 fold | 0.391 µg/mL | 0.391 µg/mL | 0.391 µg/mL | 0.391 µg/mL | 1 fold | 1 fold | 1 fold | 0.391 µg/mL | 0.391 µg/mL | 1 fold | 1 fold | 1 fold | 1 fold | 1 fold | 1 fold | 1 fold | 1 fold | 1 fold | 1 fold | MIC [3, 22]: 0.781 µg/mL; MIC [3, 23]: 0.781 µg/mL; MIC [4]: 0.391 µg/mL; MIC [5]: 0.391 µg/mL; MIC [6]: 0.391 µg/mL; MIC [7, 24]: 0.781 µg/mL; MIC [7, 25]: 0.781 µg/mL; MIC [9, 26]: 0.391 µg/mL; MIC [9, 27]: 0.391 µg/mL; MIC [10]: 0.391 µg/mL; Fold changes of MICs [11]: 1 fold; MIC [11]: 0.391 µg/mL; MIC [12]: 0.391 µg/mL; MIC ([13]; Escherichia coli, Table 14A, porinated, technical duplicate, read-out: Minimum inhibitory concentration, EKO-35 araC::acrEF Pore): 0.391 µg/mL; MIC [14]: 0.391 µg/mL; MIC [15]: 0.391 µg/mL; MIC [16]: 0.391 µg/mL; MIC [17]: 0.391 µg/mL; MIC ([18]; Escherichia coli, Table 14A, porinated, technical duplicate, read-out: Minimum inhibitory concentration, EKO-35 araC::mdtEF Pore): 0.391 µg/mL; MIC [19]: 0.391 µg/mL
CCCCCCCCCCCCOS(=O)(=O)[O-].[Na+] [SDS, sodium dodecyl sulphate] | 1 fold | 31.2 µg/mL | 31.2 µg/mL | 15.6 µg/mL | 15.625 µg/mL | 32 fold | 4 fold | 1 fold | 15.6 µg/mL | 15.625 µg/mL | 1 fold | 32 fold | 32 fold | 32 fold | 4 fold | 1 fold | 1 fold | 1 fold | 32 fold | 4 fold | MIC [3, 22]: 1000 µg/mL; MIC [3, 23]: 1000 µg/mL; MIC [5]: 125 µg/mL; MIC [6]: 31.2 µg/mL; MIC [7, 24]: 1000 µg/mL; MIC [7, 25]: 1000 µg/mL; MIC [9, 26]: 31.2 µg/mL; MIC [9, 27]: 31.2 µg/mL; Fold changes of MICs [11]: 1 fold; MIC [11]: 31.2 µg/mL; MIC [14]: 125 µg/mL; MIC [15]: 31.2 µg/mL; MIC [16]: 31.2 µg/mL; MIC [17]: 31.2 µg/mL; MIC [19]: 125 µg/mL
CN[C@@H]1[C@H](O)[C@H](NC)[C@H]2O[C@@]3(O)C(=O)C[C@@H](C)O[C@H]3O[C@@H]2[C@H]1O [Spectinomycin] | 1 fold | 25 µg/mL | 25 µg/mL | 6.25 µg/mL | 6.25 µg/mL | 1 fold | 1 fold | 1 fold | 6.25 µg/mL | 6.25 µg/mL | 1 fold | 2 fold | 2 fold | 1 fold | 1 fold | 1 fold | 1 fold | 1 fold | 1 fold | 1 fold | MIC [3, 22]: 25 µg/mL; MIC [3, 23]: 25 µg/mL; MIC [4]: 25 µg/mL; MIC [5]: 25 µg/mL; MIC [6]: 25 µg/mL; MIC [7, 24]: 12.5 µg/mL; MIC [7, 25]: 12.5 µg/mL; MIC [10]: 25 µg/mL; Fold changes of MICs [11]: 1 fold; MIC [12]: 25 µg/mL
NCCCNCCCCNCCCN [Spermine] | 1 fold |  |  | 2000 µg/mL | 2000 µg/mL | 1 fold | 1 fold | 1 fold | 2000 µg/mL | 2000 µg/mL | 1 fold | 1 fold | 1 fold | 1 fold | 1 fold | 1 fold | 1 fold | 1 fold | 1 fold | 1 fold | MIC ([1]; EKO35, read-out: Minimum Inhibitory Concentration, EKO-35): 2000 µg/mL; MIC ([1]; EKO35, read-out: Minimum inhibitory concentration (MIC), EKO-35): 2000 µg/mL; MIC ([3]; BW25113, read-out: Minimum Inhibitory Concentration, K-12): 2000 µg/mL; MIC ([3]; BW25113, read-out: Minimum inhibitory concentration (MIC), K-12): 2000 µg/mL; MIC ([7]; read-out: Minimum inhibitory concentration (MIC), Pore K-12): 2000 µg/mL; MIC ([7]; read-out: Minimum inhibitory concentration, K-12 (WT)-Pore): 2000 µg/mL; MIC [11]: 500 µg/mL
